The values below come from patent publication US12649744B2, “N-(pyridin-2-yl)-6,7,8,9-tetrahydro-5h-5,8-epiminocyclohepta[c]pyridine-10-carboxamide derivatives and similar compounds as GPR65 modulators for the treatment of cancer” (PATHIOS THERAPEUTICS LIMITED, priority 2020, dated 2026).

For orientation: IC50 means the point on the concentration scale where inhibition reaches its midpoint.

Sequence of human recombinant GPR65 (Q8IYL9 whole entry): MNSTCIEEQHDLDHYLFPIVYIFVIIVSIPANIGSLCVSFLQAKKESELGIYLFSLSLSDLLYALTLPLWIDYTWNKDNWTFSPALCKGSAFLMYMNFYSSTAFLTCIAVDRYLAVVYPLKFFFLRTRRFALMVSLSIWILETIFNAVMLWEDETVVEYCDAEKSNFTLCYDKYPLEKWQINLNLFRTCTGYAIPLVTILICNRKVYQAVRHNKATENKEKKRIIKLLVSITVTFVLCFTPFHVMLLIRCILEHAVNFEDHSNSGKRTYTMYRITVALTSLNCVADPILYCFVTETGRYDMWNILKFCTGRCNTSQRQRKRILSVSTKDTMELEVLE

One assay has as its target human recombinant GPR65 (Homo sapiens, UniProt Q8IYL9). In words: Human GPR65 cAMP HTRF antagonist assay. In kind it is cell-based.
Conditions: not given
From the text: The “Human GPR65 cyclic adenosine monophosphate (cAMP) Homogeneous Time Resolved Fluorescence (HTRF) antagonist assay”, or simply “cAMP assay”, as described below, can be used to measure the potency of GPR65 modulators, which is expressed as the concentration of compound required to reduce the increase in cAMP concentration upon GPR65 activation by 50% (i.e. an IC50).
Human GPR65 Cyclic Adenosine Monophosphate (cAMP) Homogeneous Time Resolved Fluorescence (HTRF) Antagonist Assay Procedure
IC50 data was obtained by the following procedure:
1321N1 human astrocytoma cells stably expressing human recombinant GPR65 (1321N1-hrGPR65 cells, EuroscreenFast) were cultured according to the vendor's instructions.
Compounds were tested for their ability to antagonise GPR65, through measuring the concentration of cytoplasmic cAMP following treatment of the cells at a pH of 7.2 to activate GPR65 signalling and addition of the compound to be tested. The extent to which the expected rise in cAMP concentration upon GPR65 activation was suppressed by the added compound is indicative of its potency. The assay was carried out according to EuroscreenFast assay methodology as follows.
On the day of the assay, test compounds were added to 384-well, low volume, white microtiter plates by acoustic dispensing. KRH buffer (5 mM KCl, 1.25 mM MgSO4, 124 mM NaCl, 25 mM HEPES, 13.3 mM Glucose, 1.25 mM KH2PO4 and 1.45 mM CaCl2) was adjusted to pH 6.5, pH 7.6 and pH 8.4 by adding NaOH. 1321N1-hGPR65 cells were rapidly thawed and diluted in KRH, pH 7.6 prior to centrifugation at 300×g for 5 min and resuspension in assay buffer (KRH, pH 7.6, supplemented with 1 mM 3-isobutyl-1-methylxanthine (IBMX) and 200 μM ethylenediaminetetraacetic acid (EDTA)). Cells were added to assay plates at a density of 2,000 cells per well in a volume of 5 μl. Assay plates were briefly centrifuged at 100×g and then incubated at room temperature for 30 min. Cells were stimulated by the addition of 5 μL KRH, pH 6.5, to achieve an assay pH of 7.2, while control wells received 5 μl KRH, pH 8.4 to achieve an assay pH of 7.9. Assay plates were briefly centrifuged at 100×g and then incubated at room temperature for 30 min.
Accumulation of cAMP was detected by cAMP HTRF kit (Cisbio). d2-labeled cAMP and cryptate-labeled anti-cAMP antibody in Lysis and Detection Buffer (Cisbio) were added to assay plates, and the plates were incubated at room temperature for 1 h. HTRF measurements were performed using a Pherastar FSX instrument. Acceptor and donor emission signals were measured at 665 nm and 620 nm, respectively, and HTRF ratios were calculated as signal665 nm/signal620nm×10^4. Data were normalised to high and low control values and fitted with 4-parameter logistic regression to determine hGPR65 IC50 values for the test compounds, which are shown in Table 1.
With `O=C(Nc1cc(Cl)c(Cl)cn1)N1C2CCC1c1c[nH]c(=O)c(F)c1C2` (racemic) [Compound 11, (±)-N-(4,5-dichloropyridin-2-yl)-4-fluoro-3-oxo-3,5,6,7,8,9-hexahydro-2H-6,9-epiminocyclohepta[c]pyridine-10-carboxamide], the concentration for half-maximal inhibition (IC50) is below 500 nM.

The assay is the same for the next values; noted with them: 1321N1-hrGPR65 cells, assay pH of 7.2, cAMP HTRF; read-out: hGPR65 IC50.
In the case of `O=C(Nc1nnc(C2CC2)s1)N1[C@H]2CC[C@@H]1c1ccnc(F)c1C2` [Compound 31, (5R,8S)-N-(5-Cyclopropyl-1,3,4-thiadiazol-2-yl)-1-fluoro-6,7,8,9-tetrahydro-5H-5,8-epiminocyclohepta[c]pyridine-10-carboxamide], the half-inhibitory concentration (IC50) was in the range of 500 to 5000 nM. Consider `Cn1nc(NC(=O)N2[C@H]3CC[C@@H]2c2ccnc(F)c2C3)c2ccccc21` [Compound 34, (5R,8S)-1-Fluoro-N-(1-methyl-1H-indazol-3-yl)-6,7,8,9-tetrahydro-5H-5,8-epiminocyclohepta[c]pyridine-10-carboxamide], for which the IC50 was above 5000 nM. In the case of `N#Cc1ccc(NC(=O)N2[C@H]3CC[C@@H]2c2ccnc(F)c2C3)nc1Cl` [Compound 47, (5R,8S)-N-(6-Chloro-5-cyanopyridin-2-yl)-1-fluoro-6,7,8,9-tetrahydro-5H-5,8-epiminocyclohepta[c]pyridine-10-carboxamide], the IC50 fell in the range of 500 to 5000 nM. Consider `N#Cc1cc(NC(=O)N2[C@H]3CC[C@@H]2c2ccnc(F)c2C3)no1` [Compound 52, (5R,8S)-N-(5-cyanoisoxazol-3-yl)-1-fluoro-6,7,8,9-tetrahydro-5H-5,8-epiminocyclohepta[c]pyridine-10-carboxamide], for which the IC50 is below 500 nM. Same read-out and setting: the value for `O=C(Nc1cc(C(F)(F)F)on1)N1[C@H]2CC[C@@H]1c1ccnc(F)c1C2` [Compound 36, (5R,8S)-1-Fluoro-N-(5-(trifluoromethyl)isoxazol-3-yl)-6,7,8,9-tetrahydro-5H-5,8-epiminocyclohepta[c]pyridine-10-carboxamide] was below 500 nM; that for `O=C(Nc1nc(-c2ccccc2)no1)N1[C@H]2CC[C@@H]1c1ccnc(F)c1C2` [Compound 42, (5R,8S)-1-Fluoro-N-(3-phenyl-1,2,4-oxadiazol-5-yl)-6,7,8,9-tetrahydro-5H-5,8-epiminocyclohepta[c]pyridine-10-carboxamide] was 500 to 5000 nM; that for `O=C(Nc1nnc(C(F)(F)F)s1)N1[C@H]2CC[C@@H]1c1ccnc(F)c1C2` [Compound 23, (5R,8S)-1-fluoro-N-(5-(trifluoromethyl)-1,3,4-thiadiazol-2-yl)-6,7,8,9-tetrahydro-5H-5,8-epiminocyclohepta[c]pyridine-10-carboxamide] was below 500 nM. Turning to `O=C(Nc1cnc(Cl)cc1F)N1[C@H]2CC[C@@H]1c1ccnc(F)c1C2` [Compound 16, (5R,8S)-N-(6-chloro-4-fluoropyridin-3-yl)-1-fluoro-6,7,8,9-tetrahydro-5H-5,8-epiminocyclohepta[c]pyridine-10-carboxamide], the half-maximal inhibitory concentration (IC50) was in the range of 500 to 5000 nM. `O=C(Nc1cc(C(F)(F)F)no1)N1[C@H]2CC[C@@H]1c1ccnc(F)c1C2` [Compound 50, (5R,8S)-1-fluoro-N-(3-(trifluoromethyl)isoxazol-5-yl)-6,7,8,9-tetrahydro-5H-5,8-epiminocyclohepta[c]pyridine-10-carboxamide]: the IC50 was below 500 nM. As to `O=C(Nc1ccc2nonc2c1)N1[C@H]2CC[C@@H]1c1ccnc(F)c1C2` [Compound 35, (5R,8S)-N-(Benzo[c][1,2,5]oxadiazol-5-yl)-1-fluoro-6,7,8,9-tetrahydro-5H-5,8-epiminocyclohepta[c]pyridine-10-carboxamide], the IC50 fell in the range of 500 to 5000 nM. In the case of `O=C(Nc1cc(C(F)(F)F)ncc1F)N1[C@H]2CC[C@@H]1c1c[nH]c(=O)cc1C2` [Compound 14, (6S,9R)-N-(5-fluoro-2-(trifluoromethyl)pyridin-4-yl)-3-oxo-3,5,6,7,8,9-hexahydro-2H-6,9-epiminocyclohepta[c]pyridine-10-carboxamide], the concentration for half-maximal inhibition (IC50) was 500 to 5000 nM. On to `O=C(Nc1cc(Cl)c(Cl)cn1)N1[C@H]2CC[C@@H]1c1ccnc(F)c1C2` [Compound 2, (5R,8S)-N-(4,5-dichloropyridin-2-yl)-1-fluoro-6,7,8,9-tetrahydro-5H-5,8-epiminocyclohepta[c]pyridine-10-carboxamide], for which the IC50 was below 500 nM. For `O=C(Nc1cc(Cl)c(C(F)(F)F)cn1)N1C2CCC1c1cncnc1C2` (racemic) [Compound 28, (±)-N-(4-chloro-5-(trifluoromethyl)pyridin-2-yl)-6,7,8,9-tetrahydro-5H-5,8-epiminocyclo-hepta[d]pyrimidine-10-carboxamide], the IC50 was in the range of 500 to 5000 nM.

Take `N#Cc1ccc(NC(=O)N2[C@H]3CC[C@@H]2c2ccnc(F)c2C3)nc1` [Compound 41, (5R,8S)-N-(5-Cyanopyridin-2-yl)-1-fluoro-6,7,8,9-tetrahydro-5H-5,8-epiminocyclohepta[c]pyridine-10-carboxamide]: the IC50 lay within 500 to 5000 nM. Regarding `O=C(Nc1ccc(OC(F)(F)F)cn1)N1[C@H]2CC[C@@H]1c1ccnc(F)c1C2` [Compound 40, (5R,8S)-1-Fluoro-N-(5-(trifluoromethoxy)pyridin-2-yl)-6,7,8,9-tetrahydro-5H-5,8-epiminocyclohepta[c]pyridine-10-carboxamide], the IC50 is below 500 nM.

As to `O=C(Nc1ccc(Cl)c(Cl)n1)N1[C@H]2CC[C@@H]1c1ccnc(F)c1C2` [Compound 3, (5R,8S)-N-(5,6-dichloropyridin-2-yl)-1-fluoro-6,7,8,9-tetrahydro-5H-5,8-epiminocyclohepta[c]pyridine-10-carboxamide], the IC50 was 500 to 5000 nM. For the molecule `O=C(Nc1ccc(OC(F)F)cn1)N1[C@H]2CC[C@@H]1c1ccnc(F)c1C2` [Compound 39, (5R,8S)-N-(5-(Difluoromethoxy)pyridin-2-yl)-1-fluoro-6,7,8,9-tetrahydro-5H-5,8-epiminocyclohepta[c]pyridine-10-carboxamide], the concentration for half-maximal inhibition (IC50) was in the range of 500 to 5000 nM. As for `Cc1nnc(NC(=O)N2[C@H]3CC[C@@H]2c2ccnc(F)c2C3)s1` [Compound 43, (5R,8S)-1-Fluoro-N-(5-methyl-1,3,4-thiadiazol-2-yl)-6,7,8,9-tetrahydro-5H-5,8-epiminocyclohepta[c]pyridine-10-carboxamide], the half-maximal inhibitory concentration (IC50) is above 5000 nM.

For `O=C(Nc1cnc(Cl)c(Cl)c1)N1[C@H]2CC[C@@H]1c1c[nH]c(=O)cc1C2` [Compound 13, (6S,9R)-N-(5,6-dichloropyridin-3-yl)-3-oxo-3,5,6,7,8,9-hexahydro-2H-6,9-epiminocyclo-hepta[c]pyridine-10-carboxamide], the IC50 is below 500 nM. As for `N#Cc1cnc(NC(=O)N2[C@H]3CC[C@@H]2c2ccnc(F)c2C3)cc1Cl` [Compound 46, (5R,8S)-N-(4-Chloro-5-cyanopyridin-2-yl)-1-fluoro-6,7,8,9-tetrahydro-5H-5,8-epiminocyclohepta[c]pyridine-10-carboxamide], the IC50 was below 500 nM. In the case of `O=C(Nc1nnc(-c2ccncc2)s1)N1[C@H]2CC[C@@H]1c1ccnc(F)c1C2` [Compound 24, (5R,8S)-1-fluoro-N-(5-(pyridin-4-yl)-1,3,4-thiadiazol-2-yl)-6,7,8,9-tetrahydro-5H-5,8-epiminocyclohepta[c]pyridine-10-carboxamide], the half-maximal inhibitory concentration (IC50) fell in the range of 500 to 5000 nM.

As for `O=C(Nc1cnc(-n2nccn2)c(Cl)c1)N1[C@H]2CC[C@@H]1c1ccnc(F)c1C2` [Compound 15, (5R,8S)-N-(5-chloro-6-(2H-1,2,3-triazol-2-yl)pyridin-3-yl)-1-fluoro-6,7,8,9-tetrahydro-5H-5,8-epiminocyclohepta[c]pyridine-10-carboxamide], the IC50 lay within 500 to 5000 nM. Still for that read-out and setting: the value for `O=C(Nc1ccc(Oc2ccccc2)nc1)N1C2CCC1c1ccnc(F)c1C2` (racemic) [Compound 8, (±)-1-fluoro-N-(6-phenoxypyridin-3-yl)-6,7,8,9-tetrahydro-5H-5,8-epiminocyclohepta-[c]pyridine-10-carboxamide] was 500 to 5000 nM; that for `O=C(Nc1noc(-c2ccccc2)n1)N1[C@H]2CC[C@@H]1c1ccnc(F)c1C2` [Compound 22, (5R,8S)-1-fluoro-N-(5-phenyl-1,2,4-oxadiazol-3-yl)-6,7,8,9-tetrahydro-5H-5,8-epiminocyclohepta[c]pyridine-10-carboxamide] was below 500 nM.
